{"source": "patent US20220213078A1", "about": "“MODULATORS OF THE INTEGRATED STRESS RESPONSE PATHWAY” (EVOTEC INTERNATIONAL GMBH, priority 2019, published 2022)", "note": "pIC50: −log10 of the molar value.", "data": [{"tested_on": "Tunicamycin induced ISR (ATF4) in wild-type HEK293 cells", "assay": "HEK-ATF4 High Content Imaging assay (prevention of Tunicamycin induced ISR, ATF4 nucleus/cytoplasm signal ratio)", "format": "cell-based", "settings": "Homo sapiens, 6 hrs incubation, ATF4 immunofluorescence", "description": "HEK-ATF4 High Content Imaging Assay\nExample compounds were tested in the HEK-ATF4 High Content Imaging assay to assess their pharmacological potency to prevent Tunicamycin induced ISR. Wild-type HEK293 cells were plated in 384-well imaging assay plates at a density of 12,000 cells per well in growth medium (containing DMEM/F12, 10% FBS, 2 mM L-Glutamine, 100 U/mL Penicillin—100 μg/mL Streptomycin) and incubated at 37° C., 5% CO2. 24-hrs later, the medium was changed to 50 μl assay medium per well (DMEM/F12, 0.3% FBS, 2 mM L-Glutamine, 100 U/mL Penicillin—100 μg/mL Streptomycin). Example compounds were serially diluted in dimethyl sulfoxide (DMSO), spotted into intermediate plates and prediluted with assay medium containing 3.3 μM Tunicamycin to give an 11-fold excess of final assay concentration. In addition to the example compound testing area, the plates also contained multiples of control wells for assay normalization purposes, wells, containing Tunicamycin but no example compounds (High control), as well as wells containing neither example compound nor Tunicamycin (Low control). The assay was started by transferring 5 μl from the intermediate plate into the assay plates, followed by incubation for 6 hrs at 37° C., 5% CO2. Subsequently, cells were fixed (4% PFA in PBS, 20 min at room temperature) and submitted to indirect ATF4 immunofluorescence staining (primary antibody rabbit anti ATF4, clone D4B8, Cell Signaling Technologies; secondary antibody Alexa Fluor 488 goat anti-rabbit IgG (H+L), Thermofisher Scientific). Nuclei were stained using Hoechst dye (Thermofisher Scientific), and plates were imaged on an Opera Phenix High Content imaging platform equipped with 405 nm and 488 nm excitation. Finally, images were analyzed using script based algorithms. The main readout HEK-ATF4 monitored the ATF4 signal ratio between nucleus and cytoplasm. Tunicamycin induced an increase in the overall ATF4 ratio signal, which was prevented by ISR modulating example compounds. In addition, HEK-CellCount readout was derived from counting the number of stained nuclei corresponding to healthy cells. This readout served as an internal toxicity control.", "values": [{"molecule": "O=C(COc1ccc(Cl)c(F)c1)N[C@@H]1CC[C@@H](c2nnc(-c3ccc(Cl)cc3)o2)OC1", "note": "[Example 1, 2-(4-chloro-3-fluoro-phenoxy)-N-[(3R,6S)-6-[5-(4-chlorophenyl)-1,3,4-oxadiazol-2-yl]tetrahydropyran-3-yl]acetamide]", "pIC50": "6.30 to 9.00"}, {"molecule": "O=C(COc1ccc(Cl)cc1)N[C@@H]1CC[C@@H](c2nnc(-c3ccc(Cl)cc3)o2)OC1", "note": "[Example 2, 2-(4-chlorophenoxy)-N-[(3R,6S)-6-[5-(4-chlorophenyl)-1,3,4-oxadiazol-2-yl]oxan-3-yl]acetamide]", "pIC50": "6.30 to 9.00"}, {"molecule": "O=C(COc1ccc(Cl)c(F)c1)N[C@@H]1CC[C@@H](c2nnc(-c3ccc(C(F)(F)F)nc3)o2)OC1", "note": "[Example 3, 2-(4-chloro-3-fluorophenoxy)-N-[(3R,6S)-6-{5-[6-(trifluoromethyl)pyridin-3-yl]-1,3,4-oxadiazol-2-yl}oxan-3-yl]acetamide]", "pIC50": "6.30 to 9.00"}, {"molecule": "O=C(COc1ccc(Cl)c(F)c1)N[C@H]1CC[C@H](c2nnc(-c3ccc(Cl)cc3)o2)OC1", "note": "[Example 4, 2-(4-chloro-3-fluorophenoxy)-N-[(3S,6R)-6-[5-(4-chlorophenyl)-1,3,4-oxadiazol-2-yl]oxan-3-yl]acetamide]", "pIC50": "6.30 to 9.00"}, {"molecule": "O=C(COc1ccc(Cl)c(F)c1)N[C@@H]1CC[C@@H](c2nnc(-c3ccc(C4CC4)nc3)o2)OC1", "note": "[Example 5, 2-(4-chloro-3-fluorophenoxy)-N-[(3R,6S)-6-[5-(6-cyclopropylpyridin-3-yl)-1,3,4-oxadiazol-2-yl]oxan-3-yl]acetamide]", "pIC50": "6.30 to 9.00"}, {"molecule": "CCc1ccc(-c2nnc([C@@H]3CC[C@@H](NC(=O)COc4ccc(Cl)c(F)c4)CO3)o2)cn1", "note": "[Example 6, 2-(4-chloro-3-fluorophenoxy)-N-[(3R,6S)-6-[5-(6-ethylpyridin-3-yl)-1,3,4-oxadiazol-2-yl]oxan-3-yl]acetamide]", "pIC50": "5.70 to 6.30"}, {"molecule": "O=C(COc1cnc(Cl)c(F)c1)N[C@@H]1CC[C@@H](c2nnc(-c3ccc(Cl)cc3)o2)OC1", "note": "[Example 7, 2-[(6-chloro-5-fluoropyridin-3-yl)oxy]-N-[(3R,6S)-6-[5-(4-chlorophenyl)-1,3,4-oxadiazol-2-yl]oxan-3-yl]acetamide]", "pIC50": "6.30 to 9.00"}, {"molecule": "O=C(COc1ccnc(C(F)(F)F)c1)N[C@@H]1CC[C@@H](c2nnc(-c3ccc(Cl)cc3)o2)OC1", "note": "[Example 8, N-[(3R,6S)-6-[5-(4-chlorophenyl)-1,3,4-oxadiazol-2-yl]oxan-3-yl]-2-{[2-(trifluoromethyl)pyridin-4-yl]oxy}acetamide]", "pIC50": "5.70 to 6.30"}, {"molecule": "O=C(COc1ccc(Cl)nc1)N[C@@H]1CC[C@@H](c2nnc(-c3ccc(Cl)cc3)o2)OC1", "note": "[Example 9, N-[(3R,6S)-6-[5-(4-chlorophenyl)-1,3,4-oxadiazol-2-yl]oxan-3-yl]-2-[(6-chloropyridin-3-yl)oxy]acetamide]", "pIC50": "6.30 to 9.00"}, {"molecule": "Cc1ncc(OCC(=O)N[C@@H]2CC[C@@H](c3nnc(-c4ccc(Cl)cc4)o3)OC2)cc1F", "note": "[Example 10, N-[(3R,6S)-6-[5-(4-chlorophenyl)-1,3,4-oxadiazol-2-yl]oxan-3-yl]-2-[(5-fluoro-6-methylpyridin-3-yl)oxy]acetamide]", "pIC50": "5.70 to 6.30"}, {"molecule": "O=C(COc1cnc(Cl)c(F)c1)N[C@@H]1CC[C@@H](c2nnc(-c3ccc(Cl)nc3)o2)OC1", "note": "[Example 11, 2-[(6-chloro-5-fluoropyridin-3-yl)oxy]-N-[(3R,6S)-6-[5-(6-chloropyridin-3-yl)-1,3,4-oxadiazol-2-yl]oxan-3-yl]acetamide]", "pIC50": "4.82 to 5.70"}, {"molecule": "Cc1ccc(OCC(=O)N[C@@H]2CC[C@@H](c3nnc(-c4ccc(Cl)cc4)o3)OC2)cn1", "note": "[Example 12, N-[(3R,6S)-6-[5-(4-chlorophenyl)-1,3,4-oxadiazol-2-yl]oxan-3-yl]-2-[(6-methylpyridin-3-yl)oxy]acetamide]", "pIC50": "4.82 to 5.70"}, {"molecule": "O=C(COc1cnc(Cl)cn1)N[C@@H]1CC[C@@H](c2nnc(-c3ccc(Cl)cc3)o2)OC1", "note": "[Example 13, N-[(3R,6S)-6-[5-(4-chlorophenyl)-1,3,4-oxadiazol-2-yl]oxan-3-yl]-2-[(5-chloropyrazin-2-yl)oxy]acetamide]", "pIC50": "5.70 to 6.30"}, {"molecule": "O=C(COc1cnc(Cl)nc1)N[C@@H]1CC[C@@H](c2nnc(-c3ccc(Cl)cc3)o2)OC1", "note": "[Example 14, N-[(3R,6S)-6-[5-(4-chlorophenyl)-1,3,4-oxadiazol-2-yl]oxan-3-yl]-2-[(2-chloropyrimidin-5-yl)oxy]acetamide]", "pIC50": "5.70 to 6.30"}, {"molecule": "Cc1ncc(OCC(=O)N[C@@H]2CC[C@@H](c3nnc(-c4ccc(Cl)cc4)o3)OC2)cc1Cl", "note": "[Example 15, 2-[(5-chloro-6-methylpyridin-3-yl)oxy]-N-[(3R,6S)-6-[5-(4-chlorophenyl)-1,3,4-oxadiazol-2-yl]oxan-3-yl]acetamide]", "pIC50": "6.30 to 9.00"}, {"molecule": "O=C(COc1ccc(Cl)c(F)c1)N[C@@H]1CC[C@@H](c2nnc(-c3cncc(C(F)(F)F)c3)o2)OC1", "note": "[Example 16, 2-(4-chloro-3-fluorophenoxy)-N-[(3R,6S)-6-{5-[5-(trifluoromethyl)pyridin-3-yl]-1,3,4-oxadiazol-2-yl}oxan-3-yl]acetamide]", "pIC50": "5.70 to 6.30"}, {"molecule": "O=C(COc1ccc(Cl)c(F)c1)N[C@@H]1CC[C@@H](c2nnc(-c3ccnc(C(F)(F)F)c3)o2)OC1", "note": "[Example 17, 2-(4-chloro-3-fluorophenoxy)-N-[(3R,6S)-6-{5-[2-(trifluoromethyl)pyridin-4-yl]-1,3,4-oxadiazol-2-yl}oxan-3-yl]acetamide]", "pIC50": "6.30 to 9.00"}, {"molecule": "O=C(COc1ccc(C(F)(F)F)nc1)N[C@@H]1CC[C@@H](c2nnc(-c3ccc(Cl)cc3)o2)OC1", "note": "[Example 18]", "pIC50": "6.30 to 9.00"}, {"molecule": "O=C(COc1cncc(C(F)(F)F)c1)N[C@@H]1CC[C@@H](c2nnc(-c3ccc(Cl)cc3)o2)OC1", "note": "[Example 19, N-[(3R,6S)-6-[5-(4-chlorophenyl)-1,3,4-oxadiazol-2-yl]oxan-3-yl]-2-{[5-(trifluoromethyl)pyridin-3-yl]oxy}acetamide]", "pIC50": "5.70 to 6.30"}]}]}
